Test results: US20220251109A1, “OXAAZAQUINAZOLINE-7(8H)-KETONE COMPOUND, PREPARATION METHOD THEREFOR AND PHARMACEUTICAL APPLICATION THEREOF” (GENFLEET THERAPEUTICS (SHANGHAI) INC., priority 2019, published 2022)
Like-named read-outs stand apart in the source and are kept apart here.

Tests used:
Type in all cases: cell-based, human
[1] = test system: NCI-H358 cells (Kras G12C mutation); experiment: Cell proliferation inhibition experiment, 3D model, CellTiter-Glo (NCI-H358); conditions: NCI-H358, 3D sphere plate, 5 days, 2% FBS
Method: (§1) NCI-H358 was a human non-small cell lung cancer cell line with Kras G12C mutation, cultured in 10% FBS RPMI-1640 medium; A549 was a human lung adenocarcinoma cell line with Kras G12S mutation, cultured in 10% FBS F-12K medium. The cells in the logarithmic growth phase was taken, digested with trypsin EDTA, collected and counted, and H358 was adjusted to 1.8E4 cells/ml using 2% FBS RPMI-1640 medium, and A549 was adjusted to 8.9E3 cells/ml using 2% FBS F-12K medium; 800 (45 μl) H358 or 400 (45 μl) A549 cells were seeded in a 384-well sphere plate respectively, cultured overnight to establish a 3D cell model. DMSO was used to prepare 1000× compound 3.16-fold gradient concentration stock solution, and 2% FBS medium was used to dilute 100-fold to 10× compound stock solution. On the second day after cell seeding, 5 μl 10× compound stock solution was added to each cell culture well, the final concentration was 1×, and DMSO content was 0.1%. DMSO was used as the experimental control (control) and 2% FBS medium as the blank control (blank). After the compound and cells were added and cultured for 5 days, 25 μl CellTiter-Glo working solution was added to each well, mixed at 400 rpm and incubated for 30 minutes. After 30 minutes at room temperature, 40 μl of the mixture was transferred to a 384-well plate with a non-transparent white bottom, the luminescence chemiluminescence value was read, and the cells proliferation inhibition rate IR (%)=(RLU control-RLU compound)/(RLU control-RLU blank)×100% was calculated, Prism 6 four-parameter method was used to fit the compound's gradient dilution concentration and the corresponding cell proliferation inhibition rate, and the IC50 value was calculate.

[2] = test system: A549 cells (Kras G12S mutation); experiment: Cell proliferation inhibition experiment, 3D model, CellTiter-Glo (A549); conditions: A549, 3D sphere plate, 5 days, 2% FBS
Method: as §1

[3] = test system: p-ERK in MIA PaCa2 cells (Kras G12C mutation); experiment: Cell p-ERK detection experiment (HTRF) in MIA PaCa2 cells; conditions: compound 2 hours
Method: MIA PaCa2 was a human pancreatic cancer cell line with Kras G12C mutation, cultured in 10% FBS+2.5% Horse serum DMEM medium. The cells in the logarithmic growth phase were taken, digested with enzyme EDTA, collected, counted and 2.5E4 cells were seeded in a 96-well cell culture plate, cultured overnight. DMSO was used to prepare 1000× compound 3.16-fold gradient concentration stock solution, and medium was used to dilute 200-fold to 5× compound stock solution. On the second day after cell seeding, 5× compound stock solution was added to each cell culture well, the final concentration was 1×, and DMSO content was 0.1%. DMSO was used as an experimental control (control). After the compound was added and cultured for two hours, the remaining medium was removed. 50 ul cell lysis buffer was added to each well, mixed and incubated for 30 minutes, then 16 ul of the mixture was transferred to a 96-well plate with a non-transparent white bottom, and 16 ul cell lysis buffer was added to blank wells. After the completion of the transfer, 4 ul p-ERK HTRF antibody mixture was added to each well, incubated for 4 hours and the fluorescence value was read. The compound inhibition rate IR (%)=(RLU control-RLU compound)/(RLU control-RLU blank)×100% was calculated, Prism 8 four-parameter method was used to fit the compound's gradient dilution concentration and the corresponding cell proliferation inhibition rate, and the IC50 value was calculate.

[4] = test system: MIA PaCa-2 cells (Kras G12C mutation); experiment: Cell proliferation inhibition experiment, 3D model, CellTiter-Glo (MIA PaCa-2); conditions: MIA PaCa-2, 3D sphere plate, 5 days, read-out: MIA-PaCa2 IC50
Method: MIA PaCa2 was a human pancreatic cancer cell line with Kras G12C mutation, cultured in 10% FBS+2.5% Horse serum DMEM medium; A549 was a human lung adenocarcinoma cell line with Kras G12S mutation, cultured in 10% FBS F-12K medium. The cells in the logarithmic growth phase were taken, digested with enzyme EDTA, collected, counted and 200 MIA PaCa-2 or 400 A549 cells were seeded in a 384-well sphere plate respectively, cultured overnight to establish a 3D cell model. DMSO was used to prepare 1000× compound 3.16-fold gradient concentration stock solution, and medium was used to dilute 100-fold to 10× compound stock solution. On the second day after cell seeding, 10× compound stock solution was added to each cell culture well, the final concentration was 1×, and DMSO content was 0.1%. DMSO was used as an experimental control (control), medium as the blank control (blank). After the compound and cells were added and cultured for 5 days, 30 μl CellTiter-Glo working solution was added to each well, mixed and incubated for 30 minutes. After 30 minutes at room temperature, 40 μl of the mixture was transferred to a 384-well plate with a non-transparent white bottom, the luminescence chemiluminescence value was read, and the cells proliferation inhibition rate IR (%)=(RLU control-RLU compound)/(RLU control-RLU blank)×100% was calculated, XLFit four-parameter method was used to fit the compound's gradient dilution concentration and the corresponding cell proliferation inhibition rate, and the IC50 value was calculate.

[5] = Homo sapiens, MIA PaCa-2, 120 h

SMILES	IC50 [1] [nM]	IC50 [2] [µM]	IC50 [3] [nM]	IC50 ([1]; Homo sapiens, NCI-H358, 120 h) [nM]	IC50 ([2]; Homo sapiens, A549, 120 h) [µM]	IC50 ([3]; Homo sapiens, MIA PaCa-2, 2 h) [nM]	IC50 [4, 5] [nM]	IC50 [4] [nM]
C=CC(=O)N1CCN2c3nc(=O)n(-c4c(C)ccnc4C(C)C)c4nc(-c5c(F)cccc5OC)c(Cl)c(c34)OC[C@H]2C1 (single isomer, unassigned) [Compound Z83-2]	15	9.77	67					
C=CC(=O)N1CCN2c3nc(=O)n(-c4c(OC)ncnc4C(C)C)c4nc(-c5c(O)cccc5F)c(F)c(c34)OC[C@H]2C1 (single isomer, unassigned) [Compound Z111-1]				34	> 30	186		
C=CC(=O)N1CCN2c3nc(=O)n(-c4c(C)ncnc4C(C)C)c4nc(-c5c(O)cccc5F)c(Cl)c(c34)OC[C@H]2C1 (single isomer, unassigned) [Compound Z88-1]	100		356		> 10			
C=CC(=O)N1CCN2c3nc(=O)n(-c4c(C)ncnc4C(C)C)c4nc(-c5ccccc5F)c(Cl)c(c34)OC[C@H]2C1 (single isomer, unassigned) [Compound Z95-1]	52		248		11.3			
C=CC(=O)N1CCN2c3nc(=O)n(-c4c(C)ccnc4C(C)C)c4nc(-c5cccc(Cl)c5F)c(Cl)c(c34)OC[C@@H]2C1 (single isomer, unassigned) [Compound Z82-1]	23	3.56	407					
C=CC(=O)N1CCN2c3nc(=O)n(-c4c(C)ccnc4C(C)C)c4nc(-c5cccc(F)c5F)c(Cl)c(c34)OC[C@H]2C1 (single isomer, unassigned) [Compound Z77-1]	26		58		> 10			
C=CC(=O)N1CCN2c3nc(=O)n(-c4nccnc4C(C)C)c4nc(-c5ccccc5F)c(Cl)c(c34)OC[C@H]2C1 (atropisomer, axis not shown) [Compound Z104-2]	28	> 10	185					
C=CC(=O)N1CCN2c3nc(=O)n(-c4c(C)ccnc4C(C)C)c4cc(-c5c(C)ccc6[nH]ncc56)c(Cl)c(c34)OC[C@@H]2C1 (single isomer, unassigned) [Compound Z26-1]	31				13.8			74
C=CC(=O)N1CCN2c3nc(=O)n(-c4c(C)ccnc4C(C)C)c4cc(-c5c(C)ccc6[nH]ncc56)c(Cl)c(c34)OC[C@H]2C1 (atropisomer, axis not shown) [Compound Z30-2-2]	3	> 10						4
C=CC(=O)N1CCN2c3nc(=O)n(-c4c(C)ccnc4C(C)C)c4cc(-c5c(O)cccc5F)c(Cl)c(c34)OC[C@H]2C1 (single isomer, unassigned) [Compound Z29-1]	3	> 10						8
C=CC(=O)N1CCN2c3nc(=O)n(-c4c(C)ccnc4C(C)C)c4cc(-c5c(C)ccc6[nH]ncc56)c(Cl)c(c34)OC[C@@H]2C1 (atropisomer, axis not shown) [Compound Z26-2-2]	2	> 10						3
C=CC(=O)N1CCN2c3nc(=O)n(-c4c(C)ccnc4C(C)C)c4nc(-c5c(O)cccc5F)cc(c34)OC[C@@H]2C1 (single isomer, unassigned) [Compound Z36-2]				68	14.4		121	
C=CC(=O)N1CCN2c3nc(=O)n(-c4c(C)ccnc4C(C)C)c4cc(-c5c(O)cccc5F)cc(c34)OC[C@@H]2C1 (atropisomer, axis not shown) [Compound Z15-2]	149	29.8						261
C=CC(=O)N1CCN2c3nc(=O)n(-c4c(C)ccnc4C(C)C)c4cc(-c5c(C)ccc6[nH]ncc56)c(Cl)c(c34)OC[C@@H]2C1 (single isomer, unassigned) [Compound Z26-2]	1	> 10						4
C=CC(=O)N1CCN2c3nc(=O)n(-c4ccccc4C(C)C)c4cc(-c5c(C)ccc6[nH]ncc56)c(Cl)c(c34)OC[C@@H]2C1 (single isomer, unassigned) [Compound Z20-2]	46	5.95						173

Results, then the molecule that gave them:

IC50 [1] [nM]	IC50 [2] [µM]	IC50 [3] [nM]	IC50 ([1]; Homo sapiens, NCI-H358, 120 h) [nM]	IC50 ([2]; Homo sapiens, A549, 120 h) [µM]	IC50 ([3]; Homo sapiens, MIA PaCa-2, 2 h) [nM]	IC50 [4, 5] [nM]	IC50 [4] [nM]	SMILES
			4	7.78	19			C=CC(=O)N1CCN2c3nc(=O)n(-c4c(C)ccnc4C(C)C)c4nc(-c5ccccc5Cl)c(Cl)c(c34)OC[C@H]2C1 [Compound Z90]
			2	> 10	112			C=CC(=O)N1CCN2c3nc(=O)n(-c4c(C)ccnc4C(C)C)c4nc(-c5c(F)cccc5OC)c(Cl)c(c34)OC[C@H]2C1 [Compound Z75]
2	4.22	16						C=CC(=O)N1CCN2c3nc(=O)n(-c4c(C)ccnc4C(C)C)c4nc(-c5cccc(Cl)c5F)c(Cl)c(c34)OC[C@H]2C1 [Compound Z91]
			7	> 30		18		C=CC(=O)N1CCN2c3nc(=O)n(-c4c(C)ncnc4C4CC4)c4nc(-c5c(O)cccc5F)c(Cl)c(c34)OC[C@H]2C1 [Compound Z103]
			41	> 10		29		C=CC(=O)N1CCN2c3nc(=O)n(-c4c(C)ccnc4C(C)C)c4cc(-c5c(O)cccc5F)cc(c34)OC[C@H]2C1 [Compound Z16, (R)-2-acryloyl-10-(2-fluoro-6-hydroxyphenyl)-8-(2-isopropyl-4-methylpyridin-3-yl)-1,2,3,4,13,13a-hexahydropyrazino[2′,1′:3,4][1,4]oxazepine[5,6,7-de]quinazolin-7 (8H)-one]
8				10.4		9		C=CC(=O)N1CCN2c3nc(=O)n(-c4c(C)ccnc4C(C)C)c4nc(-c5c(O)cccc5F)c(Cl)c(c34)OC[C@@H]2C1 [Compound Z24, (5 aS)-7-acryloyl-3-chloro-2-(2-fluoro-6-hydroxyphenyl)-12-(2-isopropyl-4-methylpyridin-3-yl)-5,5a,6,7,8,9-hexahydro-4-oxo-1,7,9a,10,12-pentazabenzo[4,5] cyclohepta[1,2,3-de]naphthalen-11 (12H)-one]
3				> 10			9	C=CC(=O)N1CCN2c3nc(=O)n(-c4c(C)ccnc4C(C)C)c4nc(-c5cccc(F)c5F)c(Cl)c(c34)OC[C@@H]2C1 [Compound Z47]
5				> 10		22		C=CC(=O)N1CCN2c3nc(=O)n(-c4c(C)ccnc4C(C)C)c4nc(-c5cccc(C(F)(F)F)c5F)c(Cl)c(c34)OC[C@@H]2C1 [Compound Z57]
7				12.6			14	C=CC(=O)N1CCN2c3nc(=O)n(-c4c(C)ccnc4C(C)C)c4cc(-c5c(O)cccc5F)c(Cl)c(c34)OC[C@H]2C1 [Compound Z29]
